pEC50: −log10 of the molar value. Converted amounts (≈) assume the structure as drawn. Counter-ions that a name gives are not always drawn. Like-named read-outs stand apart in the source and are kept apart here.
Tests used:
[1] = target: E. coli PBP1b (Escherichia coli (strain K12), UniProt P02919); test: Radioligand competition binding assay with 14C-labeled boronic acid probe, PBP1b
Text: To determine the ability of boronic acid-based test PBP inhibitors to bind Penicillin Binding Proteins (PBPs), a radio-labelled boronic acid PBP inhibitor
[drawing 751] was used in competition binding assays to determine boronic acid PBP inhibitor binding to PBP1a or PBP1b from Escherichia coli. PBP1a and PBP1b were purified as described previously (Bertsche, U.; et al., J. Biol. Chem. 2005, 280 (45), 38096-38101; Born, P.; et al., J. Biol. Chem. 2006. 281 (37), 26985-26993). To establish assay conditions for competition binding, an enzyme titration/saturation binding experiment was performed. Saturation binding was performed in a buffer comprised of 20 mM Tris (pH 7.5), 500 mM NaCl and 0.1% (v/v) TritonX-100, with PBP1a/PBP1b at a final concentration of 0.1 μM and Compound A at final concentrations ranging from 0-100 μM. Mixtures were incubated for 60 minutes, then applied to Zeba Spin Desalting columns or plates (ThermoFisher Scientific) and centrifuged at 1000-1500×g for 2 minutes. The flow through, containing PBP bound with Compound A, was recovered and 100 μL mixed with 5 mL of UltimaGold liquid scintillation cocktail (Perkin Elmer), and the radioactivity counted using a Beckman Coulter LS 6500 Multipurpose scintillation counter. PBP binding of Compound A approached saturation at 20 μM of ^14C-labeled probe. The competition binding assay was validated using the beta-lactam ampicillin, with Compound A at a final concentration of 20 μM, PBP1a/PBP1b at a final concentration of 0.1 μM. PBP1a/PBP1b was incubated with ampicillin in a 96-well microplate for 60 minutes, then Compound A was added and the mixtures incubated for an additional 60 minutes. The mixtures were then applied to Zeba Spin desalting plates and centrifuged at 1000×g for 2 minutes. The flow through was recovered and 100 μl mixed with 5 ml of UltimaGold liquid scintillation cocktail and the radioactivity counted. […] Binding assays with boronic acid PBP inhibitors were performed in an identical fashion. The potency of boronic acid PBP inhibitors was reported as the EC50 value.

[2] = tested on: E. coli DH5α empty pLBII vector control strain; test: microbe, parasite or virus in culture; format: cell-based, Escherichia coli; conditions: Escherichia coli, read-out: Microbiological Activity (MIC in mg/L), E. coli DH5α/pLBII
Description: Briefly, cryo-preserved bacterial cultures of challenge strains are streaked for isolation on appropriate agar medium, in this case Mueller Hinton II agar. Following incubation to allow growth of the colonies, plates are sealed with parafilm and stored refrigerated for up to two weeks. For preparation of assay inoculum and to ensure low variability, at least 5 colonies are picked from the agar plates with an inoculating loop and aseptically transferred to a culture tube containing 3 mL of Mueller-Hinton Broth (supplemented with divalent cations to required levels based on Manufacturers' certification). The broth culture is grown for 3-5 hours at 37° C. with shaking at 200 rpm. Meanwhile, 2-fold serial dilutions of test compounds are conducted in a 96 well plate with a final volume of 75 μL per well at 2-fold the final desired concentration. After the dilution plates are set up the growing cultures are then diluted in a cuvette containing MH II broth and the optical density is measured at 600 nm. The Inoculum is diluted such that 75 μL of this culture in Mueller-Hinton Broth results in a starting bacterial concentration of 5×10^5 CFU/mL when added to the dilution plates. The plates are incubated for 16-20 hours at 37° C. The MIC values are read visually as the lowest concentration well with no bacterial growth.
To determine if test compounds were affected by CTX-M15, the most abundant extended spectrum […] in clinical settings worldwide, the inhibition of the growth of an engineered strain of Escherichia coli harboring CTX-M15 was tested. This strain was constructed by cloning the gene encoding CTX-M15 into the NdeI and BamHI restriction endonuclease sites of plasmid pLBII, placing the gene(s) under the control of the Lac promoter. The constructed expression plasmid for CTX-M15 was used to transform competent E. coli DH5α cells to make the engineered strain, including an empty pLBII vector control strain. The classic cell based broth microdilution MIC assay was employed as described above with the addition of control antibiotics, known to be degraded by β-lactamases (Ceftazidime, piperacillin and piperacillin+tazobactam).

[3] = tested on: engineered strain of Escherichia coli harboring CTX-M15; test: microbe, parasite or virus in culture; format: cell-based; conditions: Escherichia coli, read-out: Microbiological Activity (MIC in mg/L), E. coli DH5α/pLBII-CTX-M15, engineered strain producing CTX-M15
[4] = target: E. coli PBP3 (Escherichia coli (strain K12), UniProt P0AD68); test: E. coli PBP3 Bocillin-FL fluorescence polarization competition binding assay
E. coli PBP3, sequence (P0AD68 whole entry): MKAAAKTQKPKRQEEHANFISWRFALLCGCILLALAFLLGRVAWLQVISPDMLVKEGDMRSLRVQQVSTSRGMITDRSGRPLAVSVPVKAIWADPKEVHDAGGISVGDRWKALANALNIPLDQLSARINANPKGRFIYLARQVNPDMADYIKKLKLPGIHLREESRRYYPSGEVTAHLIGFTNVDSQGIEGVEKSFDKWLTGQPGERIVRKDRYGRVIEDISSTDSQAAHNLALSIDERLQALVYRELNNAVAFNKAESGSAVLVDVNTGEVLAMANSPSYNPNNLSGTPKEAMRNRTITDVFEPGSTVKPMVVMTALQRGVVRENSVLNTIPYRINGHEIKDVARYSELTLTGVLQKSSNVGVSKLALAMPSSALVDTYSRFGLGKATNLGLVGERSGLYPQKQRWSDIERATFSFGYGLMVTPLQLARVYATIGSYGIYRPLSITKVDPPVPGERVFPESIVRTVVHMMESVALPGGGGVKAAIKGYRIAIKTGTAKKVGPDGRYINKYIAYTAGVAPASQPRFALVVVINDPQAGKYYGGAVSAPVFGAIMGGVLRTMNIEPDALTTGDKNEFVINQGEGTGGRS
Summary of the method: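 Steps: purified PBP (1.5 μM final) mixed with compound (0–1000 μM) in 50 mM Hepes pH 8.0, 300 mM NaCl, 5% glycerol; Bocillin-FL added to 0.1 μM; FP (ex 490, em 520 nm) followed for 60 min. Concentration reducing Bocillin-FL binding reported as EC50.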

E. coli PBP1b, sequence (P02919 whole entry): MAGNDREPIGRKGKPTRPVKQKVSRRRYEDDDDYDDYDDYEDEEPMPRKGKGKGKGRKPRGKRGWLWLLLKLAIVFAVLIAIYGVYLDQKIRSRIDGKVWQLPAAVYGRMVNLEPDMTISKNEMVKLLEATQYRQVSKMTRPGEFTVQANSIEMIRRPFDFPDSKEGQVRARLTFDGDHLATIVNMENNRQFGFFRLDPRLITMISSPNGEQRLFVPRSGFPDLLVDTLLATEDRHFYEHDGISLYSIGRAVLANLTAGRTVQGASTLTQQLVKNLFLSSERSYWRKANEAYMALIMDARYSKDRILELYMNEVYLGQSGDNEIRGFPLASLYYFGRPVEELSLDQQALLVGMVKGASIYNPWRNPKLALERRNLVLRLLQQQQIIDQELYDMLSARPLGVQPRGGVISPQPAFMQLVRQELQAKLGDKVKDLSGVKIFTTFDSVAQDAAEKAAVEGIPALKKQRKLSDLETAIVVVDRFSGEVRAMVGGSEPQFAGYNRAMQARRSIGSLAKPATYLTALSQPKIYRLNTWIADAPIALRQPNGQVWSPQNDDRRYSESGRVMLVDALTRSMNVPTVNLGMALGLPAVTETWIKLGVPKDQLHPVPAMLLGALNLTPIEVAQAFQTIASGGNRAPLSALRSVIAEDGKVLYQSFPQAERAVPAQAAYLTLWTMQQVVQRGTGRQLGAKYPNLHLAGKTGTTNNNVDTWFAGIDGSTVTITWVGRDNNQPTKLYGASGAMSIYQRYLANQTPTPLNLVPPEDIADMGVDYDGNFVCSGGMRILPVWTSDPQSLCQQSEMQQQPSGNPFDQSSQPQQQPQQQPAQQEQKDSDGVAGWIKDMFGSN

How did the pEC50 [1] turn out when `CCN1CCN(C(=O)N[C@@H](CC(=O)O)C(=O)N[C@H]2Cc3cccc(C(=O)O)c3OB2O)C(=O)C1=O` [Example 24, (R)-3-((S)-3-carboxy-2-(4-ethyl-2,3-dioxopiperazine-1-carboxamido)propanamido)-2-hydroxy-3,4-dihydro-2H-benzo[e][1,2]oxaborinine-8-carboxylic acid] was run?
The pEC50 was less than 4.00.

And the MIC [2]?
The MIC was greater than 512 mg/L.

And the MIC [3]?
The MIC was greater than 512 mg/L.

And the pEC50 [4]?
The pEC50 was less than 3.30.

How did the pEC50 [1] turn out when `CCN1CCN(C(=O)NC(C(=O)N[C@H]2Cc3cccc(C(=O)O)c3OB2O)c2ccc(O)nc2)C(=O)C1=O` (stereo partly drawn) [Example 41, (3R)-3-(2-(4-ethyl-2,3-dioxopiperazine-1-carboxamido)-2-(6-hydroxypyridin-3-yl)acetamido)-2-hydroxy-3,4-dihydro-2H-benzo[e][1,2]oxaborinine-8-carboxylic acid] was run?
Its pEC50 is greater than 5.00.

What about the MIC [2] of the same compound?
Its MIC is 32 to 64 mg/L (≈ 60.9 to 122 µM).

What about the MIC [3] of the same compound?
Its MIC is 32 to 64 mg/L (≈ 60.9 to 122 µM).

What about the pEC50 [4] of the same compound?
The pEC50 was 3.30 to 4.52.

How did the pEC50 [1] turn out when `CCN1CCN(C(=O)N[C@H](CN)C(=O)N[C@H]2Cc3cccc(C(=O)O)c3OB2O)C(=O)C1=O` [Example 11, (R)-3-((R)-3-amino-2-(4-ethyl-2,3-dioxopiperazine-1-carboxamido)propanamido)-2-hydroxy-3,4-dihydro-2H-benzo[e][1,2]oxaborinine-8-carboxylic acid, trifluoroacetic acid salt] was run?
The pEC50 was greater than 5.00.

And the MIC [2]?
The MIC was 128 to 256 mg/L.

What about the MIC [3] of the same compound?
The MIC was 128 to 256 mg/L.

How did the pEC50 [1] turn out when `CCN1CCN(C(=O)NC(CNC(=O)c2ccc(O)c(O)c2)C(=O)N[C@H]2Cc3cccc(C(=O)O)c3OB2O)C(=O)C1=O` (stereo partly drawn) [Example 35, (3R)-3-(3-(3,4-dihydroxybenzamido)-2-(4-ethyl-2,3-dioxopiperazine-1-carboxamido)propanamido)-2-hydroxy-3,4-dihydro-2H-benzo[e][1,2]oxaborinine-8-carboxylic acid] was run?
The pEC50 was greater than 5.00.

And the MIC [2]?
The MIC was greater than 512 mg/L.

What about the MIC [3] of the same compound?
The MIC was greater than 512 mg/L.

And the pEC50 [4]?
The pEC50 was less than 3.30.

Which results are given for `CCN1CCN(C(=O)N[C@H](CC(=O)O)C(=O)N[C@H]2Cc3cccc(C(=O)O)c3OB2O)C(=O)C1=O` [Example 23, (R)-3-((R)-3-carboxy-2-(4-ethyl-2,3-dioxopiperazine-1-carboxamido)propanamido)-2-hydroxy-3,4-dihydro-2H-benzo[e][1,2]oxaborinine-8-carboxylic acid]?
pEC50 [1]: < 4.00; MIC [2]: > 512 mg/L; MIC [3]: > 512 mg/L; pEC50 [4]: < 3.30

How did the pEC50 [1] turn out when `CCN1CCN(C(=O)NC(C(=O)N[C@H]2Cc3cccc(C(=O)O)c3OB2O)c2cc(O)c(O)c(O)c2)C(=O)C1=O` (stereo partly drawn) [Example 31, (3R)-3-(2-(4-ethyl-2,3-dioxopiperazine-1-carboxamido)-2-(3,4,5-trihydroxyphenyl)acetamido)-2-hydroxy-3,4-dihydro-2H-benzo[e][1,2]oxaborinine-8-carboxylic acid] was run?
The pEC50 was 4.00 to 5.00.

What about the MIC [2] of the same compound?
Its MIC is greater than 512 mg/L.

And the MIC [3]?
The MIC was greater than 512 mg/L.

And the pEC50 [4]?
The pEC50 was 3.30 to 4.52.

`CCN1CCN(C(=O)NC(CNC(=O)c2cccc(O)c2O)C(=O)N[C@H]2Cc3cccc(C(=O)O)c3OB2O)C(=O)C1=O` (stereo partly drawn) [Example 36, (3R)-3-(3-(2,3-dihydroxybenzamido)-2-(4-ethyl-2,3-dioxopiperazine-1-carboxamido)propanamido)-2-hydroxy-3,4-dihydro-2H-benzo[e][1,2]oxaborinine-8-carboxylic acid] was tested. Which pEC50 [1] did it give?
The pEC50 was greater than 5.00.

What about the MIC [2] of the same compound?
The MIC was greater than 512 mg/L.

And the MIC [3]?
The MIC was greater than 512 mg/L.

And the pEC50 [4]?
The pEC50 was less than 3.30.

`CCN1CCN(C(=O)NCC(NC(=O)N2CCN(CC)C(=O)C2=O)C(=O)N[C@H]2Cc3cccc(C(=O)O)c3OB2O)C(=O)C1=O` (stereo partly drawn) [Example 33, (3R)-3-(2,3-bis(4-ethyl-2,3-dioxopiperazine-1-carboxamido)propanamido)-2-hydroxy-3,4-dihydro-2H-benzo[e][1,2]oxaborinine-8-carboxylic acid] was tested. Which pEC50 [1] did it give?
The pEC50 was greater than 5.00.

And the MIC [2]?
The MIC was greater than 512 mg/L.

What about the MIC [3] of the same compound?
The MIC was greater than 512 mg/L.

And the pEC50 [4]?
The pEC50 was less than 3.30.

`CCN1CCN(C(=O)NC(C(=O)N[C@H]2Cc3cccc(C(=O)O)c3OB2O)c2cc(OC)c(O)c(OC)c2)C(=O)C1=O` (stereo partly drawn) [Example 29, (3R)-3-(2-(4-ethyl-2,3-dioxopiperazine-1-carboxamido)-2-(4-hydroxy-3,5-dimethoxyphenyl)acetamido)-2-hydroxy-3,4-dihydro-2H-benzo[e][1,2]oxaborinine-8-carboxylic acid] was tested. Which pEC50 [1] did it give?
Its pEC50 is less than 4.00.

And the MIC [2]?
The MIC was 128 to 256 mg/L (≈ 219 to 438 µM).

What about the MIC [3] of the same compound?
Its MIC is 128 to 256 mg/L (≈ 219 to 438 µM).

And the pEC50 ([4]; fluorescence polarization competition binding with Bocillin-FL, read-out: E. coli K12 PBP3 Potency)?
Its pEC50 is less than 3.30.

With `Nc1nc(C(NC(=O)c2cccc(O)c2O)C(=O)N[C@H]2Cc3cccc(C(=O)O)c3OB2O)cs1` (stereo partly drawn) [Example 25, (3R)-3-(2-(2-aminothiazol-4-yl)-2-(2,3-dihydroxybenzamido)acetamido)-2-hydroxy-3,4-dihydro-2H-benzo[e][1,2]oxaborinine-8-carboxylic acid] as the compound, how does the pEC50 [1] read?
The pEC50 was greater than 5.00.

And the MIC [2]?
The MIC was greater than 512 mg/L.

And the MIC [3]?
The MIC was greater than 512 mg/L.

Reference: patent US12173018B2, “Penicillin-binding protein inhibitors” (priority 2018, dated 2024)
